These results are taken from patent US12358960B2, “Selective targeting of ubiquitin- and ubiquitin-like E1-activating enzymes by structurally-stabilized peptides” (Dana-Farber Cancer Institute, Inc., priority 2019, dated 2025).

Entries after “also recorded” stand apart in the source; their conditions may differ. Bridge positions count the residues as written; N and C are the ends. Square brackets hold non-standard residues; d marks the D form. Ends that are not written are not given here. * marks the point of attachment. R8 = C=CCCCCCC[C@@](C)(N)C(=O)O; S5 = C=CCCC[C@](C)(N)C(=O)O; Nle = CCCC[C@H](N)C(=O)O; Dab = NCC[C@H](N)C(=O)O; Acryloyl = C=CC(=O)*

The first assay deals with T1, Human E1 activating enzyme UBA1 (Homo sapiens, UniProt P22314).
T1 sequence (P22314 1-1058): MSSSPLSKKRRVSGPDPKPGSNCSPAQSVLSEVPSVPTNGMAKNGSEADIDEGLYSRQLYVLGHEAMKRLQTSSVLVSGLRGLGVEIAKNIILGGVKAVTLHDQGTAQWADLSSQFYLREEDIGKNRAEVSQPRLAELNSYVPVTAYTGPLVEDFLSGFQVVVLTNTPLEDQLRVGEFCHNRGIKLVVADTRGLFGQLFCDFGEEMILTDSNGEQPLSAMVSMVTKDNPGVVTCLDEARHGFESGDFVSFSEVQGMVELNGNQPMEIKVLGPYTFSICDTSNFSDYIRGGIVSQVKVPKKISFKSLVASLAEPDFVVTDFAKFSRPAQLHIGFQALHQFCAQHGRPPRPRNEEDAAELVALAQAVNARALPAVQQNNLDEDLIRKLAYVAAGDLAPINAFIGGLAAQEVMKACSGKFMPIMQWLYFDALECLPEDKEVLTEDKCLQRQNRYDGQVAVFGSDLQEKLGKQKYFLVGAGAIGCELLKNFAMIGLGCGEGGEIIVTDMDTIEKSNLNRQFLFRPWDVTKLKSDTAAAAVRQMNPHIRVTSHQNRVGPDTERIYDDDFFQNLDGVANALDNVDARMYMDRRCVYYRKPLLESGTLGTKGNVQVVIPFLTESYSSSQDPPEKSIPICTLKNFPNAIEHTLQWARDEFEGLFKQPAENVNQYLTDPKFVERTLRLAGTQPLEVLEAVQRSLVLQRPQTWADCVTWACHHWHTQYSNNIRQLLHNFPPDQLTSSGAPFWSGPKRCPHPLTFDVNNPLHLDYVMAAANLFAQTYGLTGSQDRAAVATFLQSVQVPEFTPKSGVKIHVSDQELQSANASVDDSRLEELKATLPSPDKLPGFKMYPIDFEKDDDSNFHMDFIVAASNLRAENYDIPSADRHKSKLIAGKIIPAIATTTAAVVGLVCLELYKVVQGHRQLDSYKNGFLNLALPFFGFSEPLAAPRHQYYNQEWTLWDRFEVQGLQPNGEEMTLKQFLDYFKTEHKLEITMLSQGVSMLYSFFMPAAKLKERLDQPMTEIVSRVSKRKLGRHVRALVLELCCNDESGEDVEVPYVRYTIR
As to the kind of experiment: In vitro enzyme inhibition assay: E1-mediated ubiquitin thioester transfer to E2 (band shift, silver stain). The format is biochemical. The following applies: 100 μM peptide, UbcH5b E2 enzyme, 45 minutes, staple scan. As to the method:
In vitro Enzyme Inhibition Assays: To assess an E2 hA peptide's inhibition of an E1 enzyme, an in vitro enzyme inhibition assay can be used, for example. The in vitro enzyme inhibition assay measures an E2 hA peptide's ability to inhibit conjugation of ubiquitin to E2 by E1. Briefly, recombinant E1 (e.g., UBA1), recombinant E2 (e.g., UBE2A), ubiquitin, and Mg-ATP are combined in the presence of an E2 hA peptide or vehicle control (e.g., 1% DMSO) for a period of time (e.g., 30 minutes) at room temperature in a buffer containing, e.g., 50 mM NaCl, 50 mM HEPES pH 7.5. Control reaction includes no E1. Reactions are quenched by addition of SDS-containing loading dye and samples are resolved on a gel (e.g., a 4-12% Bis-Tris protein gel) under nonreducing conditions. Proteins on the gel are visualized via, e.g., silver stain. Conjugation of ubiquitin to E2 by E1 is monitored by conversion of free E2 (˜17 kDa) to E2˜ubiquitin conjugate (˜26 kDa).
Control reaction included no E1 enzyme. Reactions were quenched by addition of SDS-containing loading dye and samples were resolved on a 4-12% Bis-Tris protein gel under nonreducing conditions. Proteins were visualized via silver stain. Conjugation of ubiquitin to E2 by E1 was monitored by conversion of free E2 (17 kDa) to E2˜ubiquitin conjugate (26 kDa).
The ability of the peptides to inhibit E1-mediated thioester transfer to E2 was evaluated. Human E1 activating enzyme UBA1 (10 nM), UbcH5b E2 enzyme (150 nM), ubiquitin (1 μM), and Mg-ATP (20 μM) were combined in the presence of stapled peptide at a range of concentrations or vehicle control (1% DMSO) for 45 minutes at room temperature in buffer containing 50 mM NaCl, 50 mM HEPES, 1 mM TCEP pH 7.5. Reactions were quenched by addition of SDS-containing loading dye and samples were resolved on a 4-12% Bis-Tris protein gel under nonreducing conditions. Proteins were visualized via silver stain. Conjugation of ubiquitin to E2 by E1 was monitored by conversion of free E2 (17 kDa) to E2˜ubiquitin conjugate (26 kDa). Inhibition percentage was calculated from densitometry of silver stain images.
Streptavidin-biotin pull-down assays: For recombinant protein pull-downs, 10 pmol recombinant human UBA1 was incubated with 5 nmol C-terminally biotinylated SAH-UBE2A or DMSO vehicle control in a total volume of 1 mL binding buffer (50 mM NaCl, 20 mM HEPES, pH 7.4, 5 mM DTT) for 1.5 hours at 4° C. 30 μL of pre-equilibrated streptavidin agarose beads were then added and incubated for an additional 1.5 hours at 4° C. The beads were pelleted by centrifugation and washed three times with NP-40 buffer (20 mM HEPES, pH 7.4, 50 mM NaCl, 5 mM DTT, 0.5% [v/v] NP-40) before eluting the protein sample from the beads by heating at 70° C. for 10 min in 3×SDS loading buffer. Samples were subjected to electrophoresis and silver staining (Pierce 24612). For pull-down from cellular lysates, 0.75 mg HeLa cell lysate was incubated with 5 nmol C-terminally biotinylated SAH-UBE2A or DMSO vehicle control in a total volume of 1 mL binding buffer (50 mM NaCl, 20 mM HEPES, pH 7.4, 5 mM DTT) containing protease-phosphatase inhibitor cocktail for 2 hours at 4° C. 30 μL of pre-equilibrated streptavidin agarose beads (ThermoFisher 20357) were then added and incubated for an additional 1.5 hours at 4° C. The beads were pelleted by centrifugation and washed three times with NP-40 buffer (20 mM HEPES, pH 7.4, 50 mM NaCl, 5 mM DTT, 0.5% [v/v] NP-40) before eluting the protein sample from the beads by heating at 70° C. for 10 min in 3×SDS loading buffer. Proteins were separated by SDS-PAGE gel electrophoresis and detected by western blot against UBE1 (Abcam ab34711). In vitro Enzyme Inhibition Assays: Recombinant human E1 activating enzyme UBA1 (10 nM), E2 enzyme (150 nM), ubiquitin (1 μM), and Mg-ATP (20 μM) are combined in the presence of peptide or vehicle control (1% DMSO) for 45 minutes at room temperature in buffer containing 50 mM NaCl, 50 mM HEPES pH 7.5. Control reaction includes no E1 enzyme. […]
BPSSASRQLLRKQX2KEIX2 [SEQ ID NO:48]: the “inhibition of E1-mediated ubiquitin transfer to E2 (conversion of E2 to E2~ubiquitin)” value is given as “unable to inhibit E1-mediated ubiquitin transfer to E2”.
The same measure, in the same setting: for BPSSASRQLLRKX2LKEX2Q [SEQ ID NO:47] the value was “inhibited conversion of E2 to E2˜ubiquitin by E1”.
On the same count and under the same terms, for BPSSASRQLLRX2QLKX2IQ [SEQ ID NO:46] the value was “inhibited conversion of E2 to E2˜ubiquitin by E1”; for BPSSASRQLX1RKQLKEX2Q [SEQ ID NO:54], “unable to inhibit E1-mediated ubiquitin transfer to E2”; for BPSSASRQLX2RKQX2KEIQ [SEQ ID NO:45], “unable to inhibit E1-mediated ubiquitin transfer to E2”.
The same measure, in the same setting: for BPSSASRQX1LRKQLKX2IQ [SEQ ID NO:53] the value was “inhibited conversion of E2 to E2˜ubiquitin by E1”; for BPSSASRQX2LRKX2LKEIQ [SEQ ID NO:44], “inhibited conversion of E2 to E2˜ubiquitin by E1”.
As for BPSSASRX1LLRKQLX2EIQ [SEQ ID NO:52], the “inhibition of E1-mediated ubiquitin transfer to E2 (conversion of E2 to E2~ubiquitin)” value is “inhibited conversion of E2 to E2˜ubiquitin by E1”.
On the same count and under the same terms, in the case of BPSSASRX2LLRX2QLKEIQ [SEQ ID NO:43] it was “unable to inhibit E1-mediated ubiquitin transfer to E2”; in that of BPSSASX1QLLRKQX2KEIQ [SEQ ID NO:51], “unable to inhibit E1-mediated ubiquitin transfer to E2”.
Still for that read-out and setting: in the case of BPSSAX2RQLX2RKQLKEIQ [SEQ ID NO:42] it was “unable to inhibit E1-mediated ubiquitin transfer to E2”; in that of BPSSX1SRQLLRX2QLKEIQ [SEQ ID NO:49], “inhibited conversion of E2 to E2˜ubiquitin by E1”; in that of BPSSX2SRQX2LRKQLKEIQ [SEQ ID NO:41], “unable to inhibit E1-mediated ubiquitin transfer to E2”.

The assay is the same for the next values; noted with them: Example 8.
As for “BPSSAX1RQLLRJX2LKEIQ ([Nle]PSSA[R8]RQLLR[Dab](Acryloyl)[S5]LKEIQ; staple 6-13; not fully specified (N-terminus, C-terminus); printed as BPSSAX1RQLLRJX2LKEIQ) [SEQ ID NO:842, warhead-bearing stapled peptide, J acrylamide-bearing Dab at A8, staple A2 and A9]”, the “inhibition of E1-mediated thioester transfer to E2 by warhead-bearing stapled peptides” value is reported as “inhibited E1-mediated thioester transfer to E2”.
Same read-out and setting: for “BPSSAX1RQLLRKX2LJEIQ ([Nle]PSSA[R8]RQLLRK[S5]L[Dab](Acryloyl)EIQ; staple 6-13; not fully specified (N-terminus, C-terminus); printed as BPSSAX1RQLLRKX2LJEIQ) [SEQ ID NO:844, warhead-bearing stapled peptide, J acrylamide-bearing Dab at A11, staple A2 and A9]” the value was “inhibited E1-mediated thioester transfer to E2”; for “BPSSX1SRQLLRX2QLJEIQ ([Nle]PSS[R8]SRQLLR[S5]QL[Dab](Acryloyl)EIQ; staple 5-12; not fully specified (N-terminus, C-terminus); printed as BPSSX1SRQLLRX2QLJEIQ) [SEQ ID NO:841, warhead-bearing stapled peptide, J acrylamide-bearing Dab at A11, staple A1 and A8]”, “inhibited E1-mediated thioester transfer to E2”.

The assay is the same for the next values; noted with them: SAH-UBE2A-11 variants and controls, Examples 4, 7, 13.
Take “BSTPX1RARAARX2FKRLQ (Ac-[Nle]STP[R8]RARAAR[S5]FKRLQ-NH2; staple 5-12) [SAH-UBE2A-AAA]”: the “inhibition of E1-mediated thioester transfer to E2 by mutant / additional stapled peptides” value is listed as “no inhibitory activity; also recorded: progressively impaired inhibitory activity as compared to the single point mutation peptide SAH-UBE2A-R7E; also recorded: negligible inhibitory activity”.
“BSTPX1RARLBRX2FKRLQ (Ac-[Nle]STP[R8]RARL[Nle]R[S5]FKRLQ-NH2; staple 5-12) [SEQ ID NO:817]”: the “inhibition of E1-mediated thioester transfer to E2 by mutant / additional stapled peptides” value is “impair the inhibitory activity of SAH-UBE2A-11”.
As for “BSTPX1RERLBRX2FKRLQ (Ac-[Nle]STP[S5]RERL[Nle]R[R8]FKRLQ-NH2; staple 5-12) [SAH-UBE2A-11-R7E, point mutant negative control stapled peptide]”, the “inhibition of E1-mediated thioester transfer to E2 by mutant / additional stapled peptides” value is “reduced inhibitory activity as compared to SAH-UBE2A”.
Same read-out and setting: for “BSTPX1RRRABRX2FKRLQ ([Nle]STP[R8]RRRA[Nle]R[S5]FKRLQ-NH2; staple 5-12; not fully specified (N-terminus); printed as BSTPX1RRRABRX2FKRLQ) [SEQ ID NO:819]” the value was “impair the inhibitory activity of SAH-UBE2A-11”.

The assay is the same for the next values; noted with them: panel of human E2 enzymes (UBE2A, UBE2B, UBE2C, UBE2D1-4 etc.).
Take “BSTPX1RERLBRX2FKRLQ (Ac-[Nle]STP[S5]RERL[Nle]R[R8]FKRLQ-NH2; staple 5-12) [SAH-UBE2A-11-R7E, point mutant negative control stapled peptide]”: the “inhibition of E1-mediated thioester transfer to a variety of human E2 enzymes” value is “diminished inhibitory capacity; also recorded: mitigated by a single point mutation (R7E)”.

Staying with this assay, now noted: range of peptide concentrations, UbcH5b E2 enzyme, 45 minutes.
With BAGTX1LKRLBAX2YK [SAH-UBE2G2-11], the “inhibition of E1-mediated thioester transfer to E2, dose response” value is reported as “inhibited E1-mediated thioester transfer to E2 in a dose-dependent manner; also recorded: dose-dependently inhibit E1-mediated thioester transfer to E2”.
